Laboratory results reported in ChEMBL document CHEMBL4219049, “Peptide therapeutics for the treatment of gastrointestinal disorders” (Bioorg Med Chem, 2018).
Bridge positions count the residues as written; N and C are the ends. Peptide text beside a SMILES is read from it.

What was measured:
[1] = Elimination half-life in human plasma at 0.8 pmol/kg.min, iv; assay type: ADME, cell-free; settings: read-out: beta t1/2
Homo sapiens [2] = organism: Homo sapiens; test: Reduction in worst abdominal pain in patient with irritable bowel syndrome with constipation after 26 weeks (reference value: 25%); assay type: functional; parameters: scale not given: the % may be the effect or the level left
Homo sapiens [3] = organism: Homo sapiens; test: Toxicity in patient with irritable bowel syndrome with constipation assessed as induction of diarrhea after 26 weeks (reference value: 2.5%); assay type: organism-based; settings: in vivo, 4368 h
Homo sapiens [4] = organism: Homo sapiens; test: Increase in complete spontaneous bowel movements in patient with chronic idiopathic constipation at 3 mg for 12 weeks (reference value: 10.2%); assay type: functional
Homo sapiens [5] = organism: Homo sapiens; test: Toxicity in patient with chronic idiopathic constipation assessed as induction of diarrhea at 6 mg for 12 weeks (reference value: 1.3%); assay type: organism-based; settings: in vivo, 2016 h
Homo sapiens [6] = organism: Homo sapiens; test: Toxicity in patient with chronic idiopathic constipation assessed as induction of diarrhea at 3 mg for 12 weeks (reference value: 1.3%); assay type: organism-based; settings: in vivo, 2016 h
Homo sapiens [7] = organism: Homo sapiens; test: Increase in complete spontaneous bowel movements in patient with chronic idiopathic constipation at 6 mg for 12 weeks (reference value: 10.2%); assay type: functional

## CC[C@H](C)[C@H](NC(=O)[C@H](Cc1ccccc1)NC(=O)[C@H](CC(=O)O)NC(=O)[C@H](CCCN=C(N)N)NC(=O)[C@H](C)NC(=O)[C@H](C)NC(=O)[C@H](CC(C)C)NC(=O)[C@H](CC(N)=O)NC(=O)[C@H](CC(=O)O)NC(=O)[C@H](CC(C)C)NC(=O)[C@@H](NC(=O)[C@@H](NC(=O)[C@H](CC(N)=O)NC(=O)[C@H](CCSC)NC(=O)[C@H](CCC(=O)O)NC(=O)[C@H](CC(=O)O)NC(=O)[C@H](CO)NC(=O)[C@H](Cc1ccccc1)NC(=O)[C@H](CO)NC(=O)CNC(=O)[C@H](CC(=O)O)NC(=O)[C@H](C)NC(=O)[C@@H](N)Cc1cnc[nH]1)[C@@H](C)O)[C@@H](C)CC)C(=O)N[C@@H](CC(N)=O)C(=O)N[C@@H](Cc1c[nH]c2ccccc12)C(=O)N[C@@H](CC(C)C)C(=O)N[C@H](C(=O)N[C@@H](CCC(N)=O)C(=O)N[C@H](C(=O)N[C@@H](CCCCN)C(=O)N[C@H](C(=O)N[C@H](C(=O)N[C@@H](CC(=O)O)C(=O)O)[C@@H](C)O)[C@@H](C)CC)[C@@H](C)O)[C@@H](C)CC
[1]
  half-life: 7.2 min

## C[C@@H]1NC(=O)[C@@H]2CCCN2C(=O)[C@H](CC(N)=O)NC(=O)[C@@H]2CSSC[C@H](N)C(=O)N[C@H]3CSSC[C@H](NC1=O)C(=O)N[C@@H]([C@@H](C)O)C(=O)NCC(=O)N[C@H](C(=O)N[C@@H](Cc1ccc(O)cc1)C(=O)O)CSSC[C@H](NC(=O)[C@H](Cc1ccc(O)cc1)NC(=O)[C@H](CCC(=O)O)NC3=O)C(=O)N2 [LINACLOTIDE] (H-CCEYCCNPACTGCY-OH; disulfide 1-6, 2-10, 5-13)
Homo sapiens [2]
  Activity: 47%
Homo sapiens [3]
  Activity: 19.7%

## CC(C)C[C@H](NC(=O)[C@@H]1CSSC[C@@H]2NC(=O)[C@H](CC(C)C)NC(=O)[C@H](CCC(=O)O)NC(=O)[C@@H](NC(=O)[C@H](CCC(=O)O)NC(=O)[C@H](CC(=O)O)NC(=O)[C@@H](N)CC(N)=O)CSSC[C@H](NC(=O)[C@H](C)NC(=O)[C@H](C(C)C)NC(=O)[C@H](CC(N)=O)NC(=O)[C@H](C(C)C)NC2=O)C(=O)N[C@@H]([C@@H](C)O)C(=O)NCC(=O)N1)C(=O)O [PLECANATIDE]
Homo sapiens [4]
  Activity: 21%
Homo sapiens [5]
  Activity: 5.7%
Homo sapiens [6]
  Activity: 5.9%
Homo sapiens [7]
  Activity: 19.5%
